Experimental data from patent US20230414699A1, “TREATMENT OF DERMATOLOGICAL CONDITIONS” (MC2 Therapeutics Ltd, priority 2020, published 2023).
Where a name gives a salt, the structure may show the parent alone. Peptide text beside a SMILES is read from it.

What follows are compounds tested on Bovine Serum Albumin (BSA) (assay: In vitro protein carbamylation assay (14C-potassium cyanate, BSA)). Conditions: 10 mM nucleophile, 75 μM BSA, 25 μM 14C-potassium cyanate, 37° C., 72 hours, n=3.
Assay type: biochemical
Protocol: 200 μL of a 0.5% BSA solution, 200 μL of test solution and 100 μL of a 5 μCi/mL ^14C-Potassium Cyanate solution was mixed in an Eppendorf tube (corresponding to a final concentration of 75 μM BSA, 25 μM ^14C-Potassium Cyanate, and 10 mM nucleophile). Samples run in triplicates (n=3). The Eppendorf tubes were incubated at 37° C. for 72 hours (if not otherwise stated).
After incubation a volume of 100 μL of each sample was transferred to a new Eppendorf tube containing 100 μL of a 10% trichloroacetic acid (TCA) and kept at 4° C. overnight (for precipitation of BSA). Subsequently, the precipitated BSA was separated from the buffer by centrifugation (10000 rpm, 30 seconds). The supernatant was removed and the BSA pellet was resuspended in 200 μL of a 10% solution of cold TCA (4° C.). The pellet was recovered by centrifugation (10000 rpm, 30 seconds) and supernatant was discarded. The BSA pellet was resuspended in 100 μL purified water (MilliQ) and transferred to a scintillation vial. The Eppendorf tube (previously containing the BSA pellet) was rinsed with an additional 100 μL purified water which al was transferred to the relevant scintillation vial.

Going from `CC(=O)N[C@@H](CS)C(=O)O` [Acetylcysteine, reference compound] to `Cl.N=C(N)NCCC[C@H](N)C(=O)O` [Arg*HCl], the “Degree of carbamylation (% relative to HBSS control)” value rises from 14.3% to 66.1%.

First: COC(=O)[C@H](Cc1ccccc1)NC(=O)[C@@H](N)CC(=O)O [Aspartame] (HELM PEPTIDE1{D.F.[CO[*:1]]}$$$$V2.0)
Second: CC(C)C[C@H](NC(=O)[C@@H](O)[C@H](N)Cc1ccccc1)C(=O)O [Bestatin, reference compound]
The “Degree of carbamylation (% relative to HBSS control)” value of the first is lower: 30.4% for the first, 53.4% for the second.

Going from `CC1=NCC[C@@H](C(=O)O)N1` [Ectoine, reference compound] to `N[C@@H](Cc1c[nH]cn1)C(=O)O` [Histidine], the “Degree of carbamylation (% relative to HBSS control)” value falls from 97.9% to 61.1%.

First: NCCNCC(=O)O [N-β-aminoethyl-Gly]
Second: Ala-Gln
The “Degree of carbamylation (% relative to HBSS control)” value of the first is lower: 29.7% for the first, 34.8% for the second.

Compared with Ala-Glu, Arg is higher in “Degree of carbamylation (% relative to HBSS control)” value: 20.4% for the first, 52.4% for the second.

First: Gly-Gly
Second: Gly-His
The “Degree of carbamylation (% relative to HBSS control)” value of the first is higher: 26.6% for the first, 22.6% for the second.

Compared with Gly-Ser, Ile-Pro is higher in “Degree of carbamylation (% relative to HBSS control)” value: 33.1% for the first, 41.4% for the second.

Going from Lys-Pro to Pro-Ser, the “Degree of carbamylation (% relative to HBSS control)” value rises from 28.6% to 41.9%.

First: Ser-Pro
Second: Tetraglycine
The “Degree of carbamylation (% relative to HBSS control)” value of the first is higher: 26.4% for the first, 24.9% for the second.

Compared with Tyr-Ala, Tyr-Pro is higher in “Degree of carbamylation (% relative to HBSS control)” value: 26.1% for the first, 32.8% for the second.

Compared with Val-Pro, Val-Tyr is higher in “Degree of carbamylation (% relative to HBSS control)” value: 22.1% for the first, 28.9% for the second.

Same assay, conditions: 10 mM nucleophile, 37° C., 72 hours; dissolved in HBSS:DMSO 90:10; neutralized by equimolar NaOH before use

Going from `CN(C)C(=N)NC(=N)N.Cl` [Metformin*HCl, reference compound] to `CC(N)C12CC3CC(CC(C3)C1)C2.Cl` (stereo not drawn) [Rimantadine*HCl, reference compound], the “Degree of carbamylation (% relative to HBSS control)” value rises from 71.4% to 78.5%.

Same assay, conditions: 10 mM nucleophile, 37° C., 72 hours; neutralized by equimolar NaOH before use

Compared with `N=C(N)c1ccc(OCCCCCOc2ccc(C(=N)N)cc2)cc1` [Pentamidine diisethionate, reference compound], `NNCCc1ccccc1` [Phenelzine sulfate, reference compound] is lower in “Degree of carbamylation (% relative to HBSS control)” value: 43.1% for the first, 9.8% for the second.

With “Sitagliptine phosphate [reference compound]” the “Degree of carbamylation (% relative to HBSS control)” value was 48.6%.

Same assay, conditions: text statement referring to Example 3

`CC1=NCC[C@@H](C(=O)O)N1` [Ectoine, reference compound] was tested, and the “degree of carbamylation (%) relative to HBSS control, in words” value was “high degree of carbamylation”.

The compounds below were run on reconstructed human skin (Epiderm Full Thickness) (assay: In vitro protein carbamylation assay using reconstructed human skin (Protein Carbamylation Sandwich ELISA)). Conditions: 0.5 M urea:isocyanate 99:1 + 200 μL 2% nucleophile solution, apical, six days.
Assay type: cell-based
Protocol: Epiderm Full Thickness (Epiderm FT, MatTek Corp., USA) tissues were transferred to B6 trays containing EpiDermTM Full Thickness Maintenance Medium (MatTek Corp., USA) immediately upon arrival and incubated for 24 hours at 37° C. and 5% CO2. […] At day 6, the treatment solutions and the maintenance medium were removed from the tissues, and pre-warmed phosphate buffered saline (DPBS, Sigma-Aldrich) was added and removed twice before the tissues were submitted for ELISA and histological analysis. The 7 different conditions were tested on four different tissues where one tissue from each treatment was submitted for ELISA and the remaining three tissues were submitted for histological analysis. Overview of Treatment Solutions Added to the Apical Compartment • 1. […] The concentration used was selected to resemble the approximate concentration of urea in urine (Liu et. al. 2012). Experimental procedure for protein extraction was modified from Ross-Hansen et al., 2014 and Palosuo et al., 1998. The cell covered […] filters (Mattek) were cut from the plastic insertion ring, and the cell layer gently peeled of the membrane with a scalpel. […] Samples were analysed undiluted in a Protein Carbamylation Sandwich ELISA (Cell Biolabs Inc cat no STA-877).

For `N[C@@H](CC(=O)N1CCn2c(nnc2C(F)(F)F)C1)Cc1cc(F)c(F)cc1F` [Sitagliptin], the “inhibition of protein carbamylation (ELISA, FIG. 2)” value was “did not show complete inhibition”.

What follows are compounds tested on reconstructed human skin (EpiDermFT) (assay: Histological analysis (H&E) of reconstructed human skin samples treated with urea:isocyanate). Conditions: 0.5 M urea:isocyanate 99:1 + 200 μL 2% nucleophile solution, six days; vs control treated with only urea:isocyanate.
Assay type: cell-based
Protocol: Epiderm Full Thickness (Epiderm FT, MatTek Corp., USA) tissues were transferred to B6 trays containing EpiDerm™ Full Thickness Maintenance Medium (MatTek Corp., USA) immediately upon arrival and incubated for 24 hours at 37° C. and 5% CO2. […] At day 6, the treatment solutions and the maintenance medium were removed from the tissues, and pre-warmed phosphate buffered saline (DPBS, Sigma-Aldrich) was added and removed twice before the tissues were submitted for ELISA and histological analysis. The 7 different conditions were tested on four different tissues where one tissue from each treatment was submitted for ELISA and the remaining three tissues were submitted for histological analysis. Overview of Treatment Solutions Added to the Apical Compartment • 1. […] EpiDermFT membranes were app. 1 cm in diameter and were fixed in formalin for 5 days. Membranes were cut into halves using a scissors and placed into histogel matrix aiming at having the cut surface as the tissue sectioning surface. The samples were dehydrated in alcohol and xylene and embedded in paraffin using a standard paraffin embedding procedure. Sections were cut at 4 μm for Hematoxylin and Eosin (H&E) staining and immunohistochemistry (IHC). Images were acquired using a 20× objective with a Zeiss AxioScan. Representative areas were selected for presentation. […]

`N[C@@H](CC(=O)N1CCn2c(nnc2C(F)(F)F)C1)Cc1cc(F)c(F)cc1F` [Sitagliptin] was tested, and the “attachment of epidermis / reduction of skin damage (H&E, FIG. 3)” value was “least effect”.
